Source: patent US7786109B2, “Tricyclic amide derivatives as modulators of H3 receptors” (Hoffmann-La Roche Inc., priority 2005, dated 2010)

Each compound was assayed against T1, histamine 3 receptor (H3R) (Homo sapiens, UniProt Q9Y5N1) (assay: Binding assay with 3H-(R)α-methylhistamine (competition binding, membranes of the human HR3-CHO cell line)). Details: competition against 3H(R)α-Methylhistamine (1 nM), Ki calculated from IC50 by Cheng-Prusoff.
T1 construct: expressed in transfected cells; host or cells: CHO cells (HR3-CHO cell line), membranes
Description: Binding assay with ^3H—(R)α-methylhistamine
Saturation binding experiments were performed using HR3-CHO membranes prepared as described in Takahashi, K, Tokita, S., Kotani, H. (2003) J. Pharmacol. Exp. Therapeutics 307, 213-218.
An appropriate amount of membrane (60 to 80 μg protein/well) was incubated with increasing concentrations of ^3H(R)α-Methylhistamine di-hydrochloride (0.10 to 10 nM). Non specific binding was determined using a 200 fold excess of cold (R)α-Methylhistamine dihydrobromide (500 nM final concentration). The incubation was carried out at room temperature (in deep-well plates shaking for three hours). The final volume in each well was 250 μl. The incubation was followed by rapid filtration on GF/B filters (pre-soaked with 100 μl of 0.5% PEI in Tris 50 mM shaking at 200 rpm for two hours). The filtration was made using a cell-harvester and the filter plates were then washed five times with ice cold washing buffer containing 0.5 M NaCl. After harvesting, the plates were dried at 55° C. for 60 min, then we added scintillation fluid (Microscint 40, 40 microl in each well) and the amount of radioactivity on the filter was determined in Packard top-counter after shaking the plates for two hours at 200 rpm at room temperature.
Binding Buffer: 50 mM Tris-HCl pH 7.4 and 5 mM MgCl2×6H2O pH 7.4. Washing Buffer: 50 mM Tris-HCl pH 7.4 and 5 mM MgCl2×6H2O and 0.5 M NaCl pH 7.4.
Indirect measurement of affinity of H3R inverse agonists: twelve increasing concentrations (ranging from 10 μM to 0.3 nM) of the selected compounds were always tested in competition binding experiments using membrane of the human HR3-CHO cell line. An appropriate amount of protein, e.g. approximately 500 cpm binding of RAMH at Kd, were incubated for 1 hour at room temperature in 250 μl final volume in 96-well plates in presence of ^3H(R)α-Methylhistamine (1 nM final concentration=Kd). […]
All compounds were tested at a single concentration in duplicates. […] Ki's were calculated from IC50 based on Cheng-Prusoff equation (Cheng, Y, Prusoff, W H (1973) Biochem Pharmacol 22, 3099-3108).

T1 sequence (Q9Y5N1 whole entry): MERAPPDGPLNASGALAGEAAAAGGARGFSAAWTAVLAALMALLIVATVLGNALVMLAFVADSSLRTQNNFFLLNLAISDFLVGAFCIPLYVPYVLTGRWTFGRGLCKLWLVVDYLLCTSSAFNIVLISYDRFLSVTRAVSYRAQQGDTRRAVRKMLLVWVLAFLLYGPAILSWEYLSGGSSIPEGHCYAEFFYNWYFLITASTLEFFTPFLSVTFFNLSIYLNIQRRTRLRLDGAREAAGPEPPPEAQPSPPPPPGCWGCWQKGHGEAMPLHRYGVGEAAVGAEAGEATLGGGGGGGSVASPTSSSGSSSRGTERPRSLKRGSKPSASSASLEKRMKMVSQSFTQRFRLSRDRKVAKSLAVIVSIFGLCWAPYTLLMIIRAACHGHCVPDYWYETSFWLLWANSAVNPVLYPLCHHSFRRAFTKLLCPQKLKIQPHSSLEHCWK

Q: How did the Ki turn out when `C[C@@H]1CCCN1CCCOc1ccc2c(c1)cc1n2CCNC1=O` [Example 5, 8-[3-((R)-2-Methyl-pyrrolidin-1-yl)-propoxy]-3,4-dihydro-2H-pyrazino[1,2-a]indol-1-one] was run?
A: 6.5 nM

Q: For `CC(C)N1CCC(Oc2ccc3c(c2)cc2n3CCCN(CC3CC3)C2=O)CC1` [Example 78, 2-Cyclopropylmethyl-9-(1-isopropyl-piperidin-4-yloxy)-2,3,4,5-tetrahydro-[1,4]diazepino[1,2-a]indol-1-one], which Ki is on record?
A: 17.1 nM

Q: Which Ki does the source give for `C[C@H]1CCCN1CCCOc1cnc2c(c1)cc1n2CCN(CC(F)(F)F)C1=O` [Example 92, 7-[3-((S)-2-Methyl-pyrrolidin-1-yl)-propoxy]-2-(2,2,2-trifluoro-ethyl)-3,4-dihydro-2H-2,4a,5-triaza-fluoren-1-one] here?
A: 28.8 nM
